Measurements: ChEMBL document CHEMBL3244157, “Synthesis and antiinflammatory evaluation of substituted isophthalonitriles, trimesonitriles, benzonitriles, and terephthalonitriles” (J Med Chem, 1978)

Key:
Rattus norvegicus [1] = test: Antiinflammatory activity in Long Evans rat assessed as reduction of carrageenan-induced pedal edema at 200 mg/kg, po administered 1 hr prior to carrageenan challenge measured after 3 hrs relative to control; format: functional; design: scale not given: the % may be the effect or the level left
[2] = Toxicity in mouse assessed as overt effects; format: organism-based; conditions: in vivo
Rattus norvegicus [3] = test: Antiinflammatory activity in Long Evans rat assessed as reduction of carrageenan-induced pedal edema at 100 mg/kg, po administered 1 hr prior to carrageenan challenge measured after 3 hrs relative to control; format: functional; design: scale not given: the % may be the effect or the level left
Rattus norvegicus [4] = test: Antiinflammatory activity in Long Evans rat assessed as reduction of carrageenan-induced pedal edema at 50 mg/kg, po administered 1 hr prior to carrageenan challenge measured after 3 hrs relative to control; format: functional; design: scale not given: the % may be the effect or the level left
Rattus norvegicus [5] = test: Antiinflammatory activity in Long Evans rat assessed as reduction of carrageenan-induced pedal edema at 150 mg/kg, po administered 1 hr prior to carrageenan challenge measured after 3 hrs relative to control; format: functional; design: scale not given: the % may be the effect or the level left
Rattus norvegicus [6] = test: Antiinflammatory activity in Long Evans rat assessed as reduction of carrageenan-induced pedal edema at 40 mg/kg, po administered 1 hr prior to carrageenan challenge measured after 3 hrs relative to control; format: functional; design: scale not given: the % may be the effect or the level left
Rattus norvegicus [7] = test: Antiinflammatory activity in Long Evans rat assessed as reduction of carrageenan-induced pedal edema at 15 mg/kg, po administered 1 hr prior to carrageenan challenge measured after 3 hrs relative to control; format: functional; design: scale not given: the % may be the effect or the level left

Compound	Activity (Rattus norvegicus [1]) [%]	LD50 [2] [mg/kg]	other results
N#Cc1ccc(C#N)c(F)c1	49	> 300	
N#Cc1c(Cl)c(C#N)c(Nc2ccc(N)cc2)c(C#N)c1Cl		133	Activity (Rattus norvegicus [3]): 14%
N#Cc1c(Cl)c(C#N)c(Nc2ccc(Cl)c(Cl)c2)c(C#N)c1Cl		56	
N#Cc1c(F)c(F)c(C#N)c(F)c1F		56	Activity (Rattus norvegicus [4]): 54%
N#Cc1c(Cl)c(Cl)c(S(=O)(=O)CCCc2ccccc2)c(Cl)c1Cl	18	300	
CC(C)S(=O)(=O)c1c(Cl)c(Cl)c(C#N)c(Cl)c1Cl	11	> 300	
N#Cc1cc(Cl)c(C#N)cc1F	22	> 300	
N#Cc1c(Cl)c(C#N)c(Nc2ccc(Br)cc2)c(C#N)c1Cl	14	300	
CCCC(=O)Oc1c(Cl)c(Cl)c(C#N)c(Cl)c1Cl	15	> 300	
CCOCCS(=O)(=O)c1c(Cl)c(Cl)c(C#N)c(Cl)c1Cl	23	237	
CC(C)CCC(=O)Oc1c(Cl)c(Cl)c(C#N)c(Cl)c1C#N		56	Activity (Rattus norvegicus [4]): 0%
N#Cc1c(Cl)c(Cl)c(S(=O)(=O)CCCl)c(Cl)c1Cl	0	> 300	
N#Cc1c(Cl)c(Cl)c(OC(=O)c2ccccc2)c(C#N)c1Cl	11	> 300	
CCCCC(CC)C(=O)Oc1c(Cl)c(Cl)c(C#N)c(Cl)c1C#N (stereo unspecified)	20	> 300	
CCCCCC(=O)Oc1c(Cl)c(Cl)c(C#N)c(Cl)c1Cl	0	> 300	
CCCC(=O)Oc1c(Cl)c(Cl)c(C#N)c(Cl)c1C#N		178	Activity (Rattus norvegicus [5]): 14%
CCCCCCNc1c(F)c(C#N)c(F)c(F)c1C#N	11	> 300	
CC(C)C(=O)Oc1c(Cl)c(Cl)c(C#N)c(Cl)c1Cl	0	> 300	
CCCCNC(=O)Oc1c(Cl)c(Cl)c(C#N)c(Cl)c1C#N		178	Activity (Rattus norvegicus [3]): 3%
COc1ccc(Nc2c(C#N)c(Cl)c(C#N)c(Cl)c2C#N)cc1OC		178	Activity (Rattus norvegicus [5]): 13%
N#Cc1c(O)c(Cl)c(Cl)c(C#N)c1Cl		178	Activity (Rattus norvegicus [5]): 28%
CCN(CC)c1c(F)c(C#N)c(F)c(F)c1C#N	0	> 300	
CCCOc1c(Cl)c(Cl)c(C#N)c(Cl)c1C#N		178	Activity (Rattus norvegicus [3]): 8%

Compound	Activity (Rattus norvegicus [1]) [%]	LD50 [2] [mg/kg]	other results
CCCCS(=O)(=O)c1c(Cl)c(Cl)c(C#N)c(Cl)c1Cl	12	237	
CCCCC1C(=O)N(c2ccccc2)N(c2ccccc2)C1=O [PHENYLBUTAZONE]		> 300	Activity (Rattus norvegicus [3]): 43.8%
Cc1c(C#N)c(C)c(C#N)c(C)c1C#N		40	Activity (Rattus norvegicus [4]): 57%
Cc1ccc(Nc2c(C#N)c(Cl)c(C#N)c(Cl)c2C#N)c(C)c1		56	Activity (Rattus norvegicus [6]): 13%
N#Cc1ccc(Br)c(C#N)c1		178	Activity (Rattus norvegicus [3]): 3%
N#Cc1ccc(Cl)cc1	30	> 300	
N#CCCS(=O)(=O)c1c(Cl)c(Cl)c(C#N)c(Cl)c1Cl		56	Activity (Rattus norvegicus [6]): 5%
CC(C)Nc1c(C#N)c(Cl)c(C#N)c(NC(C)C)c1C#N	5	300	
CNc1c(Cl)c(Cl)c(C#N)c(Cl)c1C#N	22	> 300	
N#Cc1c(Cl)c(C#N)c(Nc2cccc(F)c2)c(C#N)c1Cl		56	Activity (Rattus norvegicus [6]): 0%
CNC(=O)Oc1c(Cl)c(Cl)c(C#N)c(Cl)c1C#N		178	Activity (Rattus norvegicus [3]): 20%
CCCCCCCCCCS(=O)(=O)c1c(Cl)c(Cl)c(C#N)c(Cl)c1Cl	0	> 300	
N#Cc1c(Cl)c(Cl)c(S(=O)(=O)CCCCCl)c(Cl)c1Cl	15	> 300	
CCCCNc1c(F)c(C#N)c(F)c(F)c1C#N	14	> 300	
CCCCC(CC)CNc1c(Cl)c(Cl)c(C#N)c(Cl)c1C#N (stereo unspecified)	0	> 300	
N#Cc1c(N)c(Cl)c(Cl)c(C#N)c1Cl	25	> 300	
CNc1c(F)c(C#N)c(F)c(F)c1C#N		56	Activity (Rattus norvegicus [6]): 17%
C=CCNc1c(Cl)c(Cl)c(C#N)c(Cl)c1C#N	17	> 300	
N#Cc1cccc(C#N)c1Cl	20	300	
CCCCCCCCCCCC(=O)Oc1c(Cl)c(Cl)c(C#N)c(Cl)c1Cl	11	> 300	
N#Cc1cccc(C#N)c1	35	178	
CC(C)C(=O)Oc1c(Cl)c(Cl)c(C#N)c(Cl)c1C#N	0	237	
N#Cc1c(Cl)c(C#N)c(Nc2ccc(F)cc2F)c(C#N)c1Cl		56	Activity (Rattus norvegicus [6]): 12%

Compound	Activity (Rattus norvegicus [1]) [%]	LD50 [2] [mg/kg]	other results
N#Cc1c(Cl)c(Cl)c(OC(=O)Cc2ccccc2)c(Cl)c1Cl	0	> 300	
N#Cc1c(Cl)c(C#N)c(Nc2ccccc2O)c(C#N)c1Cl		24	Activity (Rattus norvegicus [7]): 17%
CCCCCC(=O)Oc1c(Cl)c(Cl)c(C#N)c(Cl)c1C#N	11	> 300	
N#Cc1c(Cl)c(C#N)c(Nc2cccc(Cl)c2)c(C#N)c1Cl		178	Activity (Rattus norvegicus [6]): 0%
CCCN(CCC)c1c(F)c(C#N)c(F)c(F)c1C#N	22	> 300	
N#Cc1ccc(C#N)c(Cl)c1	46	> 300	
Cc1ccc(C#N)cc1C	25	> 300	
N#Cc1c(Cl)c(Cl)c(OC(=O)C(Cl)(Cl)Cl)c(Cl)c1Cl	17	> 300	
N#Cc1ccc(F)cc1	17	> 300	
CCC(=O)Oc1c(Cl)c(Cl)c(C#N)c(Cl)c1C#N	11	178	
CCCCCCCC(=O)Oc1c(Cl)c(Cl)c(C#N)c(Cl)c1Cl	0	> 300	
N#Cc1ccc(Br)cc1		237	Activity (Rattus norvegicus [5]): 75%
N#Cc1ccccc1Cl	26	> 300	
CCC(CC)C(=O)Oc1c(Cl)c(Cl)c(C#N)c(Cl)c1Cl	11	> 300	
Cc1cccc(Nc2c(C#N)c(Cl)c(C#N)c(Cl)c2C#N)c1C		75	Activity (Rattus norvegicus [4]): 22%
N#Cc1c(F)c(F)c(C#N)c(Cl)c1F		40	Activity (Rattus norvegicus [6]): 86%
N#Cc1c(Cl)c(Cl)c(OC(=O)c2ccc(Cl)c(Cl)c2)c(Cl)c1Cl	3	> 300	
CCCCOc1c(Cl)c(Cl)c(C#N)c(Cl)c1C#N		178	Activity (Rattus norvegicus [3]): 8%
N#Cc1cc(C#N)c(F)cc1F		56	Activity (Rattus norvegicus [4]): 59%
COc1c(Cl)c(Cl)c(C#N)c(Cl)c1C#N		178	Activity (Rattus norvegicus [3]): 0%
N#Cc1ccc(F)c(C#N)c1		178	Activity (Rattus norvegicus [5]): 25%
N#Cc1c(F)c(F)c(C#N)c(Nc2ccc(O)cc2)c1F	10	> 300	
N#Cc1c(Cl)c(C#N)c(Nc2cccc(C(F)(F)F)c2)c(C#N)c1Cl	29	237	

Compound	Activity (Rattus norvegicus [1]) [%]	LD50 [2] [mg/kg]	other results
CCC(=O)Oc1c(Cl)c(Cl)c(C#N)c(Cl)c1Cl	0	> 300	
N#Cc1ccccc1Br	19	> 300	
N#Cc1c(Cl)cc(Cl)c(C#N)c1Cl	8	100	
Cc1cccc(C#N)c1	20	> 300	
CCCCC(CC)C(=O)Oc1c(Cl)c(Cl)c(C#N)c(Cl)c1Cl (stereo unspecified)	15	> 300	
CCNc1c(F)c(C#N)c(F)c(F)c1C#N	19	237	
N#Cc1c(Cl)c(Cl)c(OC(=O)c2ccccc2Cl)c(Cl)c1Cl	0	> 300	
N#Cc1cc(C#N)cc(C#N)c1	32	300	
CCCCCS(=O)(=O)c1c(Cl)c(Cl)c(C#N)c(Cl)c1Cl	5	237	
CNc1c(C#N)c(Cl)c(C#N)c(NC)c1C#N	20	300	
N#Cc1ccc(C#N)cc1	27	> 300	
N#Cc1c(Cl)c(Cl)c(C#N)c(Cl)c1Cl	13	> 300	
N#Cc1cc(C#N)c(Cl)cc1Cl		178	Activity (Rattus norvegicus [5]): 5%
CCCCCCCC(=O)Oc1c(Cl)c(Cl)c(C#N)c(Cl)c1C#N		178	Activity (Rattus norvegicus [5]): 22%
CCNc1c(C#N)c(Cl)c(C#N)c(NCC)c1C#N	11	300	
CCCCNc1c(Cl)c(Cl)c(C#N)c(Cl)c1C#N	17	> 300	
CCCCC(=O)Oc1c(Cl)c(Cl)c(C#N)c(Cl)c1Cl	2	> 300	
N#Cc1cc(Cl)c(C#N)cc1Cl	22	> 300	
N#Cc1c(Cl)c(C#N)c(Nc2ccc(Cl)cc2)c(C#N)c1Cl		178	Activity (Rattus norvegicus [5]): 1%
CC(=O)Oc1c(Cl)c(Cl)c(C#N)c(Cl)c1C#N	25	237	
N#Cc1cc(F)c(C#N)cc1F	32	56	
CCCCCCS(=O)(=O)c1c(Cl)c(Cl)c(C#N)c(Cl)c1Cl		178	Activity (Rattus norvegicus [5]): 2%
